The values below come from PMC7339578, “Multiple circulating alkaloids and saponins from intravenous Kang-Ai injection inhibit human cytochrome P450 and UDP-glucuronosyltransferase isozymes: potential drug–drug interactions” (Chinese Medicine, 2020).

Molecules are shown by their SMILES. Like-named read-outs stand apart in the source and are kept apart here.

One may read the IC50 as the midpoint of a concentration-inhibition curve. For orientation: Ki means a measure of affinity in units of concentration, obtained from inhibition or displacement. High values mean weaker binding, low ones tighter binding.

The target of one data set is CYP3A4 (Homo sapiens, UniProt P08684). The experiment in a line: Inhibition of recombinant CYP3A4 (probe nifedipine). Format: in vitro ADME. The note with it: recombinant isozyme; mean ± SD of triplicate; unit not given (IC50 classes in μM); read-out: IC50 towards CYP3A4. On the procedure: (§1) In this study, phenacetin (100 μM), coumarin (100 μM), bupropion (100 μM), paclitaxel (60 μM), tolbutamide (200 μM), mephenytoin (100 μM), chlorzoxazone (200 μM) and nifedipine (40 μM) have been used as the probe substrates for CYP1A2, 2A6, 2B6, 2C8, 2C9, 2C19, 2E1 and 3A4, respectively.

Data set [1] can be described thus: Urinary (renal) excretion in rats after a 30-min infusion of Kang-Ai injection. Format: in vivo, Sprague–Dawley rats. The note with it: Kang-Ai injection 6 mL/kg iv. The gist of the method:
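Urine collected in metabolic cages at 0–4, 4–8, 8–12 h and bile at 0–3, 3–6, 6–9, 9–12 h after infusion start, weighed and frozen at −80 °C. Non-compartmental analysis; CLR and CLB as cumulative urinary or biliary amount divided by plasma AUC0-∞, fe-U and fe-B as cumulative amount/dose; mean ± SD (n = 3).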

The next data set has as its target T1, UGT2B7 (Homo sapiens, UniProt P16662).
T1 sequence (P16662 24-529): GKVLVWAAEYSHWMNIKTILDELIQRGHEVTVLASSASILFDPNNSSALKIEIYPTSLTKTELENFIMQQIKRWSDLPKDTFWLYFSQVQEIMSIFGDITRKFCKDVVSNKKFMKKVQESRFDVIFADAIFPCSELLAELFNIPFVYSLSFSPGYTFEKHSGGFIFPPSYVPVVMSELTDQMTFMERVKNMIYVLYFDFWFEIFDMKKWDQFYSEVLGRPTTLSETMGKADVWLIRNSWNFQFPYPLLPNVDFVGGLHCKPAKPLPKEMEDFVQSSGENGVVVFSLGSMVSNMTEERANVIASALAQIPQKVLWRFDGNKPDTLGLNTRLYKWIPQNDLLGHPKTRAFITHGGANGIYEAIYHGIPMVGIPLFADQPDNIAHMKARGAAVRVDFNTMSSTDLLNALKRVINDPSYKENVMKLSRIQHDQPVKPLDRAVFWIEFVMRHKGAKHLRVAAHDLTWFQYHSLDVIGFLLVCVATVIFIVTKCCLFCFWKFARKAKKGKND
In words: Inhibition of expressed UGT2B7 (probe 4-MU). Format: in vitro ADME. The note with it: recombinant isozyme; mean ± SD of triplicate; unit not given (IC50 classes in μM); read-out: IC50 towards UGT2B7. The procedure: (§2) After centrifugation (13,800g, 10 min), the supernatant (8 μL) was obtained for determination by UHPLC system.
(§3) Similarly, β-estradiol (60 μM), propofol (40 μM) and 4-MU (350 μM) were typically used as the substrates for UGT1A1, 1A9 and 2B7, respectively. After optimization of incubation conditions (Additional file 1: Fig. S2), the protein concentrations for UGT1A1, 1A9, and 2B7 were 0.125, 0.05, and 0.05 mg/mL, respectively.

In the next data set the target is T2, CYP2B6 (Homo sapiens, UniProt P20813).
T2 sequence (P20813 1-491): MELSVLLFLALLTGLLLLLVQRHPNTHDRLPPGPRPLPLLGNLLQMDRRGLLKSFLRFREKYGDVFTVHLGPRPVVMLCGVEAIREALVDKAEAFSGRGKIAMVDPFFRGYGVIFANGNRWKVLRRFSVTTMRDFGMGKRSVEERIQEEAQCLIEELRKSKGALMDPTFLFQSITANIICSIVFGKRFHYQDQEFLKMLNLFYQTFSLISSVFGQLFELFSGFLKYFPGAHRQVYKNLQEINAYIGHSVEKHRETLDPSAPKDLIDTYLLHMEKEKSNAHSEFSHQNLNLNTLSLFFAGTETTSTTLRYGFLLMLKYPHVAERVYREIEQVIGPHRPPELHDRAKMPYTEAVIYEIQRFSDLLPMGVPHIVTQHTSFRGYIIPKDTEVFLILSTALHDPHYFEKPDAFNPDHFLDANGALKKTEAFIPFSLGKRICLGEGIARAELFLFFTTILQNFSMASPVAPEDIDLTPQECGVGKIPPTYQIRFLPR
In words: Inhibition of recombinant CYP2B6 (probe bupropion). The note with it: recombinant isozyme; mean ± SD of triplicate; unit not given (IC50 classes in μM); read-out: IC50 towards CYP2B6. Format: in vitro ADME. The procedure: as §1

The next data set has as its target T3, UGT1A1 (Homo sapiens, UniProt P22309).
T3 sequence (P22309 26-533): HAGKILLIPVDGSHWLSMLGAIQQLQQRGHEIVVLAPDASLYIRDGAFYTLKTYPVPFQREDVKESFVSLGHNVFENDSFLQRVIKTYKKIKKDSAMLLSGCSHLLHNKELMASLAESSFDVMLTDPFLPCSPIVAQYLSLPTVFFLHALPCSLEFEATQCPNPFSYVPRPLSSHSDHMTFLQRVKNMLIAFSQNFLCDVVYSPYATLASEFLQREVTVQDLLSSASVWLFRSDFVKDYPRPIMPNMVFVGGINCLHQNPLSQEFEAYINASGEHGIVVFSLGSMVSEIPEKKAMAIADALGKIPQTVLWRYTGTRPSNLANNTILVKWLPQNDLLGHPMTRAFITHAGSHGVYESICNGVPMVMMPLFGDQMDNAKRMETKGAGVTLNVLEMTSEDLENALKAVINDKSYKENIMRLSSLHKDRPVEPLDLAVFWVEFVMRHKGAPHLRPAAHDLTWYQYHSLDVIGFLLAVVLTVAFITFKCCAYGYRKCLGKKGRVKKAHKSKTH
In words: Inhibition of expressed UGT1A1 (probe β-estradiol). Format: in vitro ADME. On the procedure:
as §2, §3

CYP3A4, sequence (P08684 whole entry): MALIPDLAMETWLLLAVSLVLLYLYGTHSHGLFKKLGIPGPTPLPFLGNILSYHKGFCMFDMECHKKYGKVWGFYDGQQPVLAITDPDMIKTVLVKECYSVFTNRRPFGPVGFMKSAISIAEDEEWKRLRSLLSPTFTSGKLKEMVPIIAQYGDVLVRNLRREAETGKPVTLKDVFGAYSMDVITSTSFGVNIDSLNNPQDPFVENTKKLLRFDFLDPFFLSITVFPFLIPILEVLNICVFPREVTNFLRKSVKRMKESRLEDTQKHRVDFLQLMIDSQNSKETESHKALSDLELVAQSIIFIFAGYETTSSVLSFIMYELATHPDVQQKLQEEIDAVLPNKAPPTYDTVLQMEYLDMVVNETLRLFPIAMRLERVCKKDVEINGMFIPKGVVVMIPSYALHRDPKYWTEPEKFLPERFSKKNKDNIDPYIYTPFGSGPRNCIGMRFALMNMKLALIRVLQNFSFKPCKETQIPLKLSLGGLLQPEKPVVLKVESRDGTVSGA

As for `CC(C)=CCC[C@](C)(O[C@@H]1O[C@H](CO)[C@@H](O)[C@H](O)[C@H]1O)[C@H]1CC[C@]2(C)[C@@H]1[C@H](O)C[C@@H]1[C@@]3(C)CC[C@H](O)C(C)(C)[C@@H]3[C@@H](O[C@@H]3O[C@H](CO)[C@@H](O)[C@H](O)[C@H]3O)C[C@]12C` [Compound C6, Ginsenoside Rg1], the IC50 on CYP3A4 is over 100 µM; on UGT2B7 it was over 100 µM; on CYP2B6 it was over 100 µM; at UGT1A1 (recombinant isozyme, mean ± SD of triplicate, unit not given (IC50 classes in μM), read-out: IC50 towards UGT1A1) it was 92.2 ± 40 µM; on UGT1A1 (β-estradiol 60 μM, read-out: IC50 against UGT1A1), 92.2 µM. The CL renal in data set [1] (male, Sprague-Dawley, urine and plasma, rat, read-out: CLR (renal excretory clearance) (converted)) is 1.04 mL/min. Moreover, the “fe-U,0–12h (fraction of dose excreted into urine)” value in data set [1] (rat urine 0–12 h) was 39.79 ± 5.88%. Moreover, the “fraction of dose excreted unchanged via renal plus hepatobiliary excretion (sum of fe-U and fe-B)” value in data set [1] (rat urine + bile, 0–12 h) is reported as about 60%. In addition, the “inhibition type (smallest AIC and SC)” value against UGT1A1 (UGT1A1) was “competitive inhibition”. Further, the Ki at UGT1A1 (UGT1A1, competitive model) was 141 ± 10.5 µM; on UGT1A1 (UGT1A1, mixed-type model), 147 ± 29.9 µM; on UGT1A1 (UGT1A1, noncompetitive model) it was 187 ± 12.7 µM. Also, the α at UGT1A1 (UGT1A1, mixed-type model) is 8.3 ± 37.2. Further, the “Cmax/Ki ([I]/Ki)” value at UGT1A1 (UGT1A1, selected model, rat plasma Cmax) came out at 0.01.
